Data reported in patent US20250108038A1 (priority 2023, published 2025).
Where “and” joins values, the source holds several entries; their conditions need not be identical. Equal values may be shown once. Where a name gives a salt, the structure may show the parent alone.

System: Long Evans rats
Assay: Behavioral satiety sequence (BSS)
Assay type: in vivo, Long Evans rat
Excerpt: The Behavioural Satiety Sequence (BSS) is a technique used to evaluate physiological satiety. It is based on the expression of a sequence of behaviors including eating, grooming, locomotor activity, followed by resting, which are typically observed in rodents post-ingestion (Halford et al, 1998, Pharmacology Biochemistry and Behaviour. 61(2): 159-168). The BSS is a widely used model for determining the effects of novel pharmaceuticals on food intake and measures of satiety in rodents (Oliveira et al, 2011, Revista de Nutrição. 24(4) 619-628), and to discriminate the cause of reduced food intake following pharmacological manipulation. For example, treatments that may reduce food intake by non-specific mechanisms, such as immobility, malaise, and taste adulteration, will disrupt this sequence (Halford et al, 1998, Pharmacology Biochemistry and Behaviour. 61(2): 159-168).
Specifically, 12 male Long-Evans rats were food-deprived for 22 h with a 2 h feeding period each day. Rats were trained to consume daily food during the 2 h period over 25 days. The testing phase was initiated once the rats consistently consumed 16-18 g of food per day with ≤10% variance in amount of feed consumed. Feeding took place in designated individual boxes in a quiet room separate from the housing room. Continuous remote monitoring via video camera during feeding was used to assess the BSS. Food consumption was measured by weighing the total available food before and after the 2 h feeding window, correcting for spillage. Lorcaserin (1 mg/kg) was included as a reference control (Higgins et al, 2011, Neuropsychopharmacology. 37(5): 1177-1191). Subjects were tested using a repeated-measures, Latin square design with 2-3 days wash-out between treatment cycles.
On scheduled test days, animals were monitored remotely via video camera during the feeding access period. The occurrence of four mutually exclusive behaviors (eating/drinking, grooming, active, rest) were individually scored. Over the 2 h feeding period, behaviors were assessed every 30 seconds. Scores were compiled into 23 5 min timebins (timebin 24 was removed due to early removal of animals) and the frequency of each behavior within each timebin was calculated to determine a temporal frequency of each measure (Rodgers et al, 2010, Pharmacology Biochemistry and Behaviour. 97: 3-14). Percentage time was plotted for each behavioral sequence in each timebin to compare between treatment groups (Higgins et al, 2011, Neuropsychopharmacology. 37(5): 1177-1191).

[1] = Lorcaserin 1 mg/kg, AVG of animals LT-1 to LT-12, 0-0.5 hours
[2] = Lorcaserin 1 mg/kg, raw data per animal LT-1 to LT-12, 0-0.5 hours, hydrochloride

## C[C@H]1CNCCc2ccc(Cl)cc21 [lorcaserin, Lorcaserin hydrochloride, reference compound]
Lorcaserin 1 mg/kg s.c., raw score per animal, hydrochloride
  BSS scoring R (resting), Time Bin 12 (55-60 TOTAL): 0 (10×) and 1 (2×)
[1]
  BSS scoring A (active), Time Bin 1 (0-5 TOTAL), AVG: 0.17
  BSS scoring A (active), Time Bin 2 (5-10 TOTAL), AVG: 0.08
  BSS scoring A (active), Time Bin 3 (10-15 TOTAL), AVG: 0.09
  BSS scoring A (active), Time Bin 4 (15-20 TOTAL), AVG: 0.10
  BSS scoring A (active), Time Bin 5 (20-25 TOTAL), AVG: 0.18
  BSS scoring A (active), Time Bin 6 (25-30 TOTAL), AVG: 0.15
  BSS scoring E (eating/drinking), Time Bin 1 (0-5 TOTAL), AVG: 0.75
  BSS scoring E (eating/drinking), Time Bin 2 (5-10 TOTAL), AVG: 0.83
  BSS scoring E (eating/drinking), Time Bin 3 (10-15 TOTAL), AVG: 0.78
  BSS scoring E (eating/drinking), Time Bin 4 (15-20 TOTAL), AVG: 0.78
  BSS scoring E (eating/drinking), Time Bin 5 (20-25 TOTAL), AVG: 0.71
  BSS scoring E (eating/drinking), Time Bin 6 (25-30 TOTAL), AVG: 0.75
  BSS scoring G (grooming), Time Bin 1 (0-5 TOTAL), AVG: 0.08
  BSS scoring G (grooming), Time Bin 2 (5-10 TOTAL), AVG: 0.09
  BSS scoring G (grooming), Time Bin 3 (10-15 TOTAL), AVG: 0.10
  BSS scoring G (grooming), Time Bin 4 (15-20 TOTAL), AVG: 0.09
  BSS scoring G (grooming), Time Bin 5 (20-25 TOTAL), AVG: 0.12
  BSS scoring G (grooming), Time Bin 6 (25-30 TOTAL), AVG: 0.05
  BSS scoring R (resting), Time Bin 1 (0-5 TOTAL), AVG: 0.01
  BSS scoring R (resting), Time Bin 2 (5-10 TOTAL), AVG: 0.01
  BSS scoring R (resting), Time Bin 3 (10-15 TOTAL), AVG: 0.02
  BSS scoring R (resting), Time Bin 4 (15-20 TOTAL), AVG: 0.03
  BSS scoring R (resting), Time Bin 5 (20-25 TOTAL), AVG: 0.00
  BSS scoring R (resting), Time Bin 6 (25-30 TOTAL), AVG: 0.05
Lorcaserin 1 mg/kg, raw data per animal LT-1 to LT-12, 0-0.5 hours
  BSS scoring R (resting), Time Bin 5 (20-25 TOTAL): 0
[2]
  BSS scoring A (active), Time Bin 1 (0-5 TOTAL): 3 (3×) and 2 (4×) and 1 (3×) and 0 (2×)
  BSS scoring A (active), Time Bin 2 (5-10 TOTAL): 1 (3×) and 0 (6×) and 2 (3×)
  BSS scoring A (active), Time Bin 3 (10-15 TOTAL): 1 (7×) and 0 (3×) and 2 (2×)
  BSS scoring A (active), Time Bin 4 (15-20 TOTAL): 3 (3×) and 1 (3×) and 0 (6×)
  BSS scoring A (active), Time Bin 5 (20-25 TOTAL): 0 (3×) and 1 (3×) and 3 (2×) and 4 (2×) and 2 (2×)
  BSS scoring A (active), Time Bin 6 (25-30 TOTAL): 2 (2×) and 0 (4×) and 1 (4×) and 7 and 3
  BSS scoring E (eating/drinking), Time Bin 1 (0-5 TOTAL): 7 (4×) and 6 (3×) and 8 (2×) and 10 and 9 (2×)
  BSS scoring E (eating/drinking), Time Bin 2 (5-10 TOTAL): 6 (2×) and 9 (4×) and 8 (3×) and 7 and 10 (2×)
  BSS scoring E (eating/drinking), Time Bin 3 (10-15 TOTAL): 8 (6×) and 5 and 7 and 6 and 10 and 9 (2×)
  BSS scoring E (eating/drinking), Time Bin 4 (15-20 TOTAL): 7 (3×) and 8 and 6 (3×) and 10 and 9 (4×)
  BSS scoring E (eating/drinking), Time Bin 5 (20-25 TOTAL): 9 (2×) and 8 (4×) and 7 (3×) and 4 (2×) and 6
  BSS scoring E (eating/drinking), Time Bin 6 (25-30 TOTAL): 7 (2×) and 9 (4×) and 10 and 8 (3×) and 1 and 5
  BSS scoring G (grooming), Time Bin 1 (0-5 TOTAL): 0 (4×) and 2 and 1 (7×)
  BSS scoring G (grooming), Time Bin 2 (5-10 TOTAL): 3 and 1 (4×) and 0 (5×) and 2 (2×)
  BSS scoring G (grooming), Time Bin 3 (10-15 TOTAL): 1 (4×) and 2 (4×) and 0 (4×)
  BSS scoring G (grooming), Time Bin 4 (15-20 TOTAL): 0 (4×) and 1 (5×) and 2 (3×)
  BSS scoring G (grooming), Time Bin 5 (20-25 TOTAL): 1 (3×) and 2 (4×) and 0 (4×) and 3
  BSS scoring G (grooming), Time Bin 6 (25-30 TOTAL): 0 (7×) and 1 (4×) and 2
  BSS scoring R (resting), Time Bin 1 (0-5 TOTAL): 0 (11×) and 1
  BSS scoring R (resting), Time Bin 2 (5-10 TOTAL): 0 (11×) and 1
  BSS scoring R (resting), Time Bin 3 (10-15 TOTAL): 0 (10×) and 1 (2×)
  BSS scoring R (resting), Time Bin 4 (15-20 TOTAL): 0 (8×) and 1 (4×)
